The results in this text go back to patent US20050228041A1, “Protective and therapeutic uses for tocotrienols” (priority 2003, published 2005).

Each structure is given as a SMILES string. Entries after “also recorded” stand apart in the source; their conditions may differ.

Assay [1] has as its system primary rat immature cortical neurons. The experiment in a line: Neurotoxin-induced loss of viability of primary immature cortical neurons (LDH leakage). The note with it: glutamate 10 mM, 24 h; for protection against loss of neuronal viability by neurotoxins: L-homocysteic acid 1 mM, BSO 0.15 mM, BSO + arachidonic acid 0.05 mM, α-tocotrienol (nM) 5 min before. The class given is cell-based. The protocol: Referring to FIG. 1, primary rat immature cortical neurons (A-C) or HT4 (D) were either treated or not with α-tocotrienol (as indicated) for 5 min and challenged with either glutamate (10 mM; A); L-homocysteic acid (1 mM; B); or buthionine sulfoximine (0.15 mM; BSO) for 24 h. […] Cells were counted at 12, 24 and 36 h after glutamate challenge.
First, we tested for the involvement of 12-LOX in the execution of glutamate-induced death in our model. We started by using the 12-LOX specific inhibitor baicalein or BL15. Referring to FIG. 3, HT4 neurons (A) were either treated or not with a-tocotrienol (250 nM) or […] (2.5 μM, 12-lipoxygenase inhibitor) for 5 min and then challenged with glutamate (10 mM). Cell viability was determined using propidium iodide (PI) exclusion flow cytometry assay. PI−=live; PI+=dead. Rat primary immature cortical neurons (B-D) were either treated or not with α-tocotrienol (100 nM) or BL15 (2.5 μM) for 5 min and challenged either with glutamate (10 mM; B); L-homocysteic acid (1 mM; C) or buthionine sulfoximine (0.15 mM; BSO; D) for 24 h. Arachidonic acid, 50 μM for 24h. BL15, Baicalein 5,6,7-trihydroxy-flavone.
Cell culture. Mouse hippocampal HT4 cells, were grown in Dulbecco's Modified Eagle Medium supplemented with 10% fetal calf serum, penicillin (100 U/ml) and streptomycin (100 μg/ml) at 37° C. in a humidified atmosphere containing 95% air and 5% CO2. HT4 cells were provided by Dr. D. E. Koshland Jr. (University of California at Berkeley) (Sen et al., 2000). Primary cortical neurons. Cells were isolated from the cerebral cortex of rat feti (Sprague Dawley; day 17 of gestation) or mouse feti (C57BL/6 mice, day 14 of gestation) as described (Murphy et al., 1990). For 12-LOX knockout studies, neurons were isolated from the feti of B6.129S2-Alox15^tm1Fun (Jackson Laboratory, […].). After isolation from the brain, cells were counted and seeded in culture plates at a density of 2-3×10^6 cells per 35 mm plate (Murphy et al., 1990). Cells were grown in Minimal Essential Medium (MEM) supplemented with 10% heat-inactivated fetal bovine serum, 40 μM cystine and antibiotics (100 μg/ml streptomycin, 100 units/ml penicillin, 0.25 μg/ml amphotericin). Cultures were maintained at 37° C. in 5% CO2 and 95% air in a humidified incubator. All experiments were carried out 24 h after plating.
Treatment with neurotoxic agents. Immediately before experiments, culture media was replaced with fresh medium supplemented with serum and antibiotics. Glutamate (10 mM) was added to the media as aqueous solution (Han et al., 1997a; Sen et al., 2000; Tirosh et al., 2000). […] Other agents used to induce death in neuronal cells have been described in the pertinent figure legends.
Vitamin E treatment. Stock solutions (10^3X of working concentration) of α-tocotrienol was prepared in ethanol. […]
Determination of cell viability. Viability of HT4 cells was determined using propidium iodide exclusion assay using the flow cytometer as described by us previously (Sen et al., 2000; Tirosh et al., 2000). Because primary neuronal cultures tend to aggregate during flow cytometry, the viability of these cells was assessed by measuring lactate dehydrogenase (LDH) leakage (Han et al., 1997a) from cells to media 24 h following glutamate treatment using in vitro toxicology assay kit from Sigma Chemical Co. (St. Louis, Mo., USA). […]
In general terms: Release of lactate dehydrogenase indicates damage to the cell membrane.

Assay [2] concerns rat primary cortical neurons. The experiment in a line: Imaging of glutamate-induced degeneration of rat primary cortical neurons (immunofluorescence, live cell imaging). It counts as cell-based. The note with it: glutamate 10 mM, α-tocotrienol 250 nM or BL15 2.5 μM 5 min before.
Protocol: Phase contrast images were collected once every 15 mins for 18 h from 8 h after glutamate treatment.
For immunofluorescence microscopy, primary cultures of rat cortical neurons were plated on 35 mm plates pre-coated with poly-L-lysine. After 24 h, cell were treated with α-tocotrienol or BL15 for 5 minutes and then challenged with glutamate or exposed to glutamate. After 24 h of glutamate exposure, cells were washed thrice in PBS, fixed for 10 minutes at room temperature in 4% paraformaldehyde, and permeabilized with PBS-T (PBS containing 0.2% Triton X-100) for 20 minutes at room temperature. Samples were then rinsed 3× with PBS-T and blocking (2% BSA in PBS-T) was done for 1 h at room temperature. After blocking, samples were incubated overnight at 4° C. with the primary antibody (anti-neurofilament 200 (1:100, Sigma St. Louis, Mo.) or neuronal class III α-tubulin (1:500, Covance Berkeley, Calif.)}. After washing with PBS (3×, 5 min each), the samples were incubated with Alexa Fluor 488 conjugated goat anti-mouse or anti-rabbit (Molecular Probes Eugene, Oreg.) secondary antibody for 45 minutes at room temperature. This was followed by three PBS washes, and mounting in aqueous medium. Fluorescent images were collected using a Zeiss Axiovert 200M microscope. Images were acquired using Axiovision 3.1.
For live cell imaging, primary cultures of rat cortical neurons were plated on 35 mm plates pre-coated with poly-L-lysine. […] Images were collected once every 15 minutes using a specialized phase contrast Zeiss optics suited for imaging cells growing in routine culture plates.
Assay [3] has as its system 12-lipoxygenase activity in HT4 neurons. The experiment in a line: 12(S)-HETE, product of 12-lipoxygenase activity, in glutamate-treated HT4 neurons (HPLC). It counts as cell-based, mouse. The note with it: HT4, glutamate 12 h. The protocol:
Neurons isolated from 12-LOX deficient mice are resistant to glutamate-induced death (FIG. 4). This striking finding reinforced our interest to test α-tocotrienol as an inhibitor of glutamate-inducible 12-LOX activity in neuronal cells. Referring to FIG. 5, Products of 12-lipoxygenase activity in glutamate-treated neurons were evaluated using a HPLC-based analytical approach. […] ND, not detectable. It was observed that the by-product of 12-LOX activity, 12(S)-HETE, was not detected in HT4 cells under basal culture conditions (FIG. 5). […] However, such increase was prevented in α-tocotrienol treated cells (FIG. 5). This line of observation led to the question whether over-expression of 12-LOX in HT4 cells would sensitize them to glutamate-induced cytotoxicity and whether α-tocotrienol could counter such toxicity.
12-HETE detection. 12-Hydroxy-eicosatetraenoic acid (HETE) from HT4 cells was detected using a HPLC-UV based method (Eberhard et al., 2000). Immunofluorescence microscopy. For immunofluorescence microscopy, primary cultures of rat cortical neurons were plated on 35 mm plates pre-coated with poly-L-lysine. After 24 h, cell were treated with α-tocotrienol or BL15 for 5 minutes and then challenged with glutamate or exposed to glutamate. […]

`CC(C)=CCC/C(C)=C/CC/C(C)=C/CC[C@]1(C)CCc2c(C)c(O)c(C)c(C)c2O1` [α-tocotrienol]: the “protection against glutamate-induced death of primary neurons” value in assay [1] (α-tocotrienol 100 nM or BL15 2.5 μM 5 min before) is listed as “protected neurons against glutamate challenge”. The “protection against loss of neuronal viability by neurotoxins” value in assay [1] was “protects”; in assay [1] (listed as α-Tocotrienol), “total protection”. For the same molecule, the “glutamate-induced degeneration of the neural network and neuronal growth” value in assay [2] is “resisted degeneration and continued to grow; also recorded: prevents glutamate-induced neuro-degeneration; also recorded: protection”; in assay [2] (listed as α-Tocotrienol), “insensitive to glutamate”. Besides, the “glutamate-induced increase of cellular 12(S)-HETE content” value in assay [3] is “prevented”.
